We go through 53 molecules from patent publication US9732075B2, “Benzimidazole-proline derivatives” (IDORSIA PHARMACEUTICALS LTD, priority 2012, dated 2017).

Assay [1] deals with human orexin-1 receptor (Homo sapiens (Human), UniProt O43613). Briefly: In vitro assay: intracellular calcium measurements (FLIPR), antagonistic activity. The assay is classed as cell-based. To be noted: CHO cells expressing human orexin-1 receptor, orexin-A agonist, geometric mean, read-out: IC50 Ox1. A digest of the protocol:
(§1)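 hOX1R/hOX2R CHO cells, fluo-4 AM + 5 mM probenecid, 50 min 37 °C then 30 min RT. Cpd 120 min, then orexin-A 3 nM final; FLIPR peak height vs vehicle. IC50, geometric mean of repeats.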

Assay [2] deals with human orexin-2 receptor (Homo sapiens (Human), UniProt O43614). The assay is described as above. The assay is classed as cell-based. The following applies: CHO cells expressing human orexin-2 receptor, orexin-A agonist, geometric mean, read-out: IC50 Ox2. A digest of the protocol:
as §1

human orexin-2 receptor, sequence (O43614 whole entry): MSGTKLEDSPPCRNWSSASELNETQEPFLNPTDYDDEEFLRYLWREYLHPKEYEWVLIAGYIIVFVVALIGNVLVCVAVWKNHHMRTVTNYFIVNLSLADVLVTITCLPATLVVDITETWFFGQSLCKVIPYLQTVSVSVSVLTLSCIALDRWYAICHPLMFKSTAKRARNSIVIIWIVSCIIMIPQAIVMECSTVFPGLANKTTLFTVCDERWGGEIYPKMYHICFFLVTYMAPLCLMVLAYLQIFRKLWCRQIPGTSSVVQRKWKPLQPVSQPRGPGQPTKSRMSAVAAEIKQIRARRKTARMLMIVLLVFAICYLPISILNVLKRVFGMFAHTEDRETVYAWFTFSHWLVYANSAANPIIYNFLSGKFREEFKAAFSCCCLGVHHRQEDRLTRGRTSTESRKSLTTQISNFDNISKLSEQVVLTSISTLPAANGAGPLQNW
human orexin-1 receptor, sequence (O43613 whole entry): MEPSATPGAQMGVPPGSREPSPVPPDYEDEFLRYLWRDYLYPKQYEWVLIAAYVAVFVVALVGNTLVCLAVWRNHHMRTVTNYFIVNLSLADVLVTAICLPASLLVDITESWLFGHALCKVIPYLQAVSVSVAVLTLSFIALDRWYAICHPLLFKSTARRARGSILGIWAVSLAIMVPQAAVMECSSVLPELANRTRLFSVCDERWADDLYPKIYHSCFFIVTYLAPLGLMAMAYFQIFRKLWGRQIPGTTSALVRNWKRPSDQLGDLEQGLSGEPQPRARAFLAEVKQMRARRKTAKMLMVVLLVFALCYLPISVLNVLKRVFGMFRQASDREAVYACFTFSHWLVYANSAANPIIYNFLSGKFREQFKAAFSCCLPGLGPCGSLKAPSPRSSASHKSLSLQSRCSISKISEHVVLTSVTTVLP

As usually defined, the IC50 is the concentration at which inhibition is half-maximal. Regarding `Cc1ccc(-n2nccn2)c(C(=O)N2CCC[C@@]2(C)c2nc3cc(C)c(C)cc3[nH]2)n1` [Ex. 5.62], the IC50 in assay [1] is 35 nM; in assay [2] it was 130 nM.
For the molecule `COc1cc2nc([C@]3(C)CCCN3C(=O)c3cc(Cl)ccc3-n3nccn3)[nH]c2cc1OC` [Ex. 5.64], the IC50 in assay [1] turned out to be 17 nM; in assay [2] it was 19 nM.
As to `COc1cc2nc([C@]3(C)CCCN3C(=O)c3cc(F)ccc3-n3nccn3)[nH]c2cc1OC` [Ex. 5.65], the IC50 was determined as 200 nM in assay [1] and 154 nM in assay [2].
Consider `COc1cc2nc([C@]3(C)CCCN3C(=O)c3c(F)cccc3-n3nccn3)[nH]c2cc1OC` [Ex. 5.66], for which the IC50 in assay [1] is 872 nM; in assay [2], 458 nM.
Regarding `COc1cc2nc([C@]3(C)CCCN3C(=O)c3c(-n4nccn4)ccc(C)c3F)[nH]c2cc1OC` [Ex. 5.68], the half-maximal inhibitory concentration (IC50) was 141 nM in assay [1] and 150 nM in assay [2].
For `COc1cc2nc([C@]3(C)CCCN3C(=O)c3c(-n4nccn4)ccc(OC)c3F)[nH]c2cc1OC` [Ex. 5.69] the same measures were 414 nM and 1200 nM.
In the case of `COc1cc2nc([C@]3(C)CCCN3C(=O)c3ccc(C)cc3-n3nccn3)[nH]c2cc1OC` [Ex. 5.70], the half-inhibitory concentration (IC50) was 31 nM in assay [1] and 83 nM in assay [2].
Take `COc1cc2nc([C@]3(C)CCCN3C(=O)c3cc(C(F)(F)F)ccc3-n3nccn3)[nH]c2cc1OC` [Ex. 5.71]: the IC50 in assay [1] came out at 56 nM; in assay [2], 22 nM.
Take `COc1cc2nc([C@]3(C)CCCN3C(=O)c3cc(C)c(C)cc3-n3nccn3)[nH]c2cc1OC` [Ex. 5.72]: the IC50 in assay [1] was determined as 19 nM; in assay [2], 16 nM.
Regarding `COc1cc2nc([C@]3(C)CCCN3C(=O)c3ccccc3-n3nccn3)[nH]c2cc1OC` [Ex. 5.73], the IC50 in assay [1] was 98 nM; in assay [2] it was 57 nM.
For `COc1cc2nc([C@]3(C)CCCN3C(=O)c3nc(C)sc3-c3ccc(C(F)(F)F)cc3)[nH]c2cc1OC` [Ex. 5.74] the same measures were 592 nM and 414 nM.
For `COc1cc2nc([C@]3(C)CCCN3C(=O)c3sc(C)nc3-c3ccc(C)cc3)[nH]c2cc1OC` [Ex. 5.75] the same measures were 300 nM and 126 nM.
For `COc1cc2nc([C@]3(C)CCCN3C(=O)c3nc(C)sc3-c3cc(F)cc(F)c3)[nH]c2cc1OC` [Ex. 5.76] the same measures were 33 nM and 47 nM.
Regarding `COc1ccc(-c2sc(C)nc2C(=O)N2CCC[C@@]2(C)c2nc3cc(OC)c(OC)cc3[nH]2)cn1` [Ex. 5.77], the 50% inhibitory concentration (IC50) turned out to be 64 nM in assay [1] and 153 nM in assay [2].
For `COc1cc2nc([C@]3(C)CCCN3C(=O)c3nc(C)sc3-c3ccc(F)cc3)[nH]c2cc1OC` [Ex. 5.78] the same measures were 31 nM and 72 nM.
Consider `COc1cc2nc([C@]3(C)CCCN3C(=O)c3nc(C)sc3-c3ccc(Cl)cc3)[nH]c2cc1OC` [Ex. 5.79], for which the IC50 in assay [1] was 43 nM; in assay [2], 97 nM.
As for `COc1cc2nc([C@]3(C)CCCN3C(=O)c3ncsc3-c3cccc(Cl)c3)[nH]c2cc1OC` [Ex. 5.80], the IC50 in assay [1] stood at 548 nM; in assay [2], 360 nM.
As for `COc1cc2nc([C@]3(C)CCCN3C(=O)c3ccccc3-n3cccn3)[nH]c2cc1OC` [Ex. 5.81], the results for the IC50 in assay [1] and in assay [2] were 258 nM and 130 nM, respectively.
For `COc1cc2nc([C@]3(C)CCCN3C(=O)c3cc(C)ccc3-n3cccn3)[nH]c2cc1OC` [Ex. 5.82] the same measures were 27 nM and 15 nM.
Turning to `COc1cc2nc([C@]3(C)CCCN3C(=O)c3nc(C)ccc3-n3cccn3)[nH]c2cc1OC` [Ex. 5.83], the figures for the IC50 in assay [1] and in assay [2] were 426 nM and 104 nM, respectively.
Take `COc1cc2nc([C@]3(C)CCCN3C(=O)c3cc(OC(F)(F)F)ccc3-n3nccn3)[nH]c2cc1OC` [Ex. 5.84]: the IC50 was 138 nM in assay [1] and 76 nM in assay [2].
For the molecule `COc1cc2nc([C@]3(C)CCCN3C(=O)c3nc(C)ccc3-n3nccn3)[nH]c2cc1OC` [Ex. 5.85], the values for the half-maximal inhibitory concentration (IC50) in assay [1] and in assay [2] were 316 nM and 114 nM, respectively.
For the molecule `COc1cc(C(=O)N2CCC[C@@]2(C)c2nc3cc(OC)c(OC)cc3[nH]2)c(-n2nccn2)cc1OC` [Ex. 5.86], the IC50 in assay [1] turned out to be 94 nM; in assay [2], 85 nM.
With `COc1cc2nc([C@]3(C)CCCN3C(=O)c3ccccc3-c3cccc(C)c3)[nH]c2cc1OC` [Ex. 5.87], the values for the IC50 in assay [1] and in assay [2] were 203 nM and 157 nM, respectively.
On to `COc1cc2nc([C@]3(C)CCCN3C(=O)c3ccccc3-c3ccc(C)cc3)[nH]c2cc1OC` [Ex. 5.88], for which the IC50 in assay [1] worked out at 192 nM; in assay [2] it was 166 nM.
As to `COc1cc2nc([C@]3(C)CCCN3C(=O)c3cnc(C)nc3-c3cccc(C)c3)[nH]c2cc1OC` [Ex. 5.89], the results for the IC50 in assay [1] and in assay [2] were 148 nM and 119 nM, respectively.
Turning to `COc1cc2nc([C@]3(C)CCCN3C(=O)c3cncnc3-c3ccccc3)[nH]c2cc1OC` [Ex. 5.90], the IC50 in assay [1] turned out to be 232 nM; in assay [2], 473 nM.
For `Cc1ccc(-c2ccc(F)cc2C)c(C(=O)N2CCC[C@@]2(C)c2nc3cc(C)c(C)cc3[nH]2)c1` [Ex. 5.91] the same measures were 217 nM and 1290 nM.
For `COc1ccccc1-c1ccc(C)cc1C(=O)N1CCC[C@@]1(C)c1nc2cc(C)c(C)cc2[nH]1` [Ex. 5.92], the IC50 in assay [1] turned out to be 62 nM; in assay [2] it was 177 nM.
As for `COc1cccc(-c2ccc(C)cc2C(=O)N2CCC[C@@]2(C)c2nc3cc(C)c(C)cc3[nH]2)c1` [Ex. 5.93], the figures for the IC50 in assay [1] and in assay [2] were 15 nM and 19 nM, respectively.
The like results for `COc1ccc(-c2ccc(C)cc2C(=O)N2CCC[C@@]2(C)c2nc3cc(C)c(C)cc3[nH]2)cc1` [Ex. 5.94] were, in that order, 14 nM and 37 nM.
For `Cc1ccc(-c2ccccc2F)c(C(=O)N2CCC[C@@]2(C)c2nc3cc(C)c(C)cc3[nH]2)c1` [Ex. 5.95], the IC50 in assay [1] came out at 11 nM; in assay [2], 29 nM.
On to `Cc1ccc(-c2ccc(F)cc2)c(C(=O)N2CCC[C@@]2(C)c2nc3cc(C)c(C)cc3[nH]2)c1` [Ex. 5.96], for which the IC50 in assay [1] was found to be 13 nM; in assay [2], 32 nM.
Consider `Cc1ccc(-c2cccc(F)c2)c(C(=O)N2CCC[C@@]2(C)c2nc3cc(C)c(C)cc3[nH]2)c1` [Ex. 5.97], for which the IC50 is 6 nM in assay [1] and 11 nM in assay [2].
As to `Cc1ccc(-c2ccccc2C)c(C(=O)N2CCC[C@@]2(C)c2nc3cc(C)c(C)cc3[nH]2)c1` [Ex. 5.98], the IC50 came to 120 nM in assay [1] and 264 nM in assay [2].
`Cc1cccc(-c2ccc(C)cc2C(=O)N2CCC[C@@]2(C)c2nc3cc(C)c(C)cc3[nH]2)c1` [Ex. 5.99]: the values for the IC50 in assay [1] and in assay [2] were 6 nM and 11 nM, respectively.
Regarding `Cc1ccc(-c2ccc(C)cc2C(=O)N2CCC[C@@]2(C)c2nc3cc(C)c(C)cc3[nH]2)cc1` [Ex. 5.100], the values for the IC50 in assay [1] and in assay [2] were 17 nM and 27 nM, respectively.
As for `COc1cccc(-c2ccccc2C(=O)N2CCC[C@@]2(C)c2nc3cc(C)c(C)cc3[nH]2)c1` [Ex. 5.101], the IC50 in assay [1] was found to be 59 nM; in assay [2], 54 nM.
The like results for `COc1ccc(-c2ccccc2C(=O)N2CCC[C@@]2(C)c2nc3cc(C)c(C)cc3[nH]2)cc1` [Ex. 5.102] were, in that order, 34 nM and 82 nM.
For the molecule `Cc1cc2nc([C@]3(C)CCCN3C(=O)c3ccccc3-c3ccccc3F)[nH]c2cc1C` [Ex. 5.103], the IC50 in assay [1] was 46 nM; in assay [2] it was 70 nM.
For the molecule `Cc1cc2nc([C@]3(C)CCCN3C(=O)c3ccccc3-c3ccc(F)cc3)[nH]c2cc1C` [Ex. 5.104], the IC50 was determined as 92 nM in assay [1] and 97 nM in assay [2].
Take `Cc1cc2nc([C@]3(C)CCCN3C(=O)c3ccccc3-c3cccc(F)c3)[nH]c2cc1C` [Ex. 5.105]: the results for the IC50 in assay [1] and in assay [2] were 24 nM and 28 nM, respectively.
In the case of `Cc1cccc(-c2ccccc2C(=O)N2CCC[C@@]2(C)c2nc3cc(C)c(C)cc3[nH]2)c1` [Ex. 5.106], the figures for the IC50 in assay [1] and in assay [2] were 25 nM and 37 nM, respectively.
Turning to `Cc1ccc(-c2ccccc2C(=O)N2CCC[C@@]2(C)c2nc3cc(C)c(C)cc3[nH]2)cc1` [Ex. 5.107], the IC50 in assay [1] stood at 58 nM; in assay [2], 53 nM.
For the molecule `Cc1ccc(-c2ccc(F)cc2C)c(C(=O)N2CCC[C@@]2(C)c2nc3c(C)c(C)ccc3[nH]2)c1` [Ex. 5.108], the IC50 in assay [1] is 265 nM; in assay [2], 161 nM.
Take `Cc1ccc(-c2cccc(F)c2)c(C(=O)N2CCC[C@@]2(C)c2nc3c(C)c(C)ccc3[nH]2)c1` [Ex. 5.109]: the IC50 turned out to be 3 nM in assay [1] and 4 nM in assay [2].
Regarding `COc1cccc(-c2ccc(C)cc2C(=O)N2CCC[C@@]2(C)c2nc3c(C)c(C)ccc3[nH]2)c1` [Ex. 5.110], the concentration for half-maximal inhibition (IC50) in assay [1] amounted to 13 nM; in assay [2], 14 nM.
With `Cc1cccc(-c2ccc(C)cc2C(=O)N2CCC[C@@]2(C)c2nc3c(C)c(C)ccc3[nH]2)c1` [Ex. 5.111], the IC50 in assay [1] was 5 nM; in assay [2] it was 7 nM.
`COc1ccc(-c2ccc(C)cc2C(=O)N2CCC[C@@]2(C)c2nc3c(C)c(C)ccc3[nH]2)cc1` [Ex. 5.112]: the 50% inhibitory concentration (IC50) is 12 nM in assay [1] and 16 nM in assay [2].
In the case of `Cc1ccc(-c2ccc(C)cc2C(=O)N2CCC[C@@]2(C)c2nc3c(C)c(C)ccc3[nH]2)cc1` [Ex. 5.113], the IC50 amounted to 12 nM in assay [1] and 15 nM in assay [2].
The like results for `Cc1ccc(-c2ccccc2F)c(C(=O)N2CCC[C@@]2(C)c2nc3c(C)c(C)ccc3[nH]2)c1` [Ex. 5.114] were, in that order, 10 nM and 21 nM.
As to `Cc1ccc(-c2ccc(F)cc2)c(C(=O)N2CCC[C@@]2(C)c2nc3c(C)c(C)ccc3[nH]2)c1` [Ex. 5.115], the figures for the IC50 in assay [1] and in assay [2] were 22 nM and 18 nM, respectively.
In the case of `Cc1ccc2[nH]c([C@]3(C)CCCN3C(=O)c3ccccc3-c3cccc(F)c3)nc2c1C` [Ex. 5.116], the IC50 is 39 nM in assay [1] and 19 nM in assay [2].
